Structures are written as SMILES. Several values for one entry are separate records, joined by “and”; a condition that tells them apart may be missing. Identical values can stand only once.

This assay has as its system Caspase 8. The assay can be described thus: ELISA, Caspase 8 concentration. It counts as cell-based, human. As to the method:
The concentrations of matrix metalloproteinase-2 (MMP2), matrix metalloproteinase-9 (MMP9), Bcl2, BAX, P53, Malondialdehyde (MDA), Glutathione (GSH), caspase 8, caspase 9 and IL-6 were measured quantitatively in 5c treated MCF7 and HEP2 cells using ELISA (Enzyme-Linked Immunosorbent Assay) (Table 4). Gelatinases are a collective word for MMP-2 and MMP-9, where MMP-2 is gelatinase-A and MMP-9 is gelatinase-B. Solid tumor invasion, metastasis, and angiogenesis have long been linked to gelatinases (Das et al. [2021]). […] Bcl2 is a crucial protein that targets apoptosis inhibition. It is regarded as a predictive biomarker or therapeutic target in the diagnosis of cancer due to its broad expression in a variety of cancers (Porter et al. [2009]). […] The pro-apoptotic protein BAX permeabilizes the mitochondrial outer membrane by changing from a cytosolic monomer to a hazardous oligomer triggering the apoptosis process (Fulda and Debatin [2006]). […] P53 transcription factor performs an essential tumor suppressor role by coordinating a wide range of physiological responses, including DNA repair, cell cycle arrest, cellular senescence, cell death, cell differentiation, and metabolism (Liebl and Hofmann [2021]). It was activated in MCF7 and HEP2-treated cells with values (4.28 and 3.109 ng/mL), respectively, compared to their controls (3.44 and 2.06 ng/mL). […]
(In an ELISA, binding on a coated surface is turned into a signal by an enzyme label.)

`COc1ccc(NC(=O)COc2ccc(C=CC(=O)c3cccs3)cc2)cc1` [Compound 5c, N-(4-Methoxyphenyl)-2-(4-(3-oxo-3-(thiophen-2-yl)prop-1-en-1-yl)phenoxy)acetamide]: the Caspase8 concentration by setting is: (5c treated HEP2 cells, untreated 0.187±0.025) 2.27 ng/mL and 2.27 ± 0.142 ng/mL; (5c treated MCF7 cells, untreated 0.162±0.0203) 2.13 ng/mL and 2.13 ± 0.268 ng/mL.

The values are drawn from paper PMC11582173, “Synthesis, cytotoxicity, anti-inflammatory, anti-metastatic and anti-oxidant activities of novel chalcones incorporating 2-phenoxy-N-arylacetamide and thiophene moieties: induction of apoptosis in MCF7 and HEP2 cells” (Naunyn-Schmiedeberg's Archives of Pharmacology, 2024).
